Structures can show the parent of a compound that is named as a salt.
The molecules below were run against T1, 5-HT4 receptor (Rattus norvegicus, UniProt Q62758) (assay: Agonisting Action to 5-HT4 Receptor: relaxation of carbachol-contracted muscular sample of mucous membrane in rat esophagus). Settings: negative logarithm of concentration causing 50% relaxation.
T1 construct: muscular sample of mucous membrane in esophgus exentrated from a rat; from tissue; host or cells: rat oesophagus, muscularis mucosae (isolated tissue contracted with carbachol)
Source text: Pharmacol.", Vol. 343, page 439 (1991)].
Namely, a relaxation of the Test and Control compounds in various concentration showing to carbachol contradiction of a muscular sample of mucous membrane in esophgus exentrated from a rat was checked to calculate a concentration causing 50% relaxation and compared with its negative logarithm (P EC50).

T1 sequence (Q62758 whole entry): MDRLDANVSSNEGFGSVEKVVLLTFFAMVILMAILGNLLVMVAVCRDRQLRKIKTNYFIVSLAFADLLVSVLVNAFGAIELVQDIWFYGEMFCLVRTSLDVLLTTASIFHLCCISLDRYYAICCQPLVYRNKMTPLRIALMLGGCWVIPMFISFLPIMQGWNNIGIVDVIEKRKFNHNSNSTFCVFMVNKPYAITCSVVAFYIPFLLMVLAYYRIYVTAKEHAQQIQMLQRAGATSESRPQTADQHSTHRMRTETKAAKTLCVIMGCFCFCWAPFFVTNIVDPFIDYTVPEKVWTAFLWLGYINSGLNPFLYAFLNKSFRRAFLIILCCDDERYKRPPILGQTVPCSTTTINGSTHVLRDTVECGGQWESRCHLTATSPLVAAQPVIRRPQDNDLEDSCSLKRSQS

EC50	pEC50	Compound
5010 nM	–	COc1c(C(=O)NCCC23CCCN2CCC3)cc(Cl)c2c1CCN2 [Example 1, N-[2-(1-Azabicyclo[3.3.01]octan-5-yl)ethyl]-7-chloro-2,3-dihydro-4-methoxyindole-5-carboxamide. 1/2 fumarate]
5010 nM	–	CCOc1c(C(=O)NCCC23CCCN2CCC3)cc(Cl)c2c1CCN2 [Example 2, N-[2-(1-Azabicyclo[3.3.0]octan-5-yl)ethyl]-7-chloro-2,3-dihydro-4-ethoxyindole-5-carboxamide. 1/2 fumarate]
2000 nM	–	Cc1oc2c(C(=O)NCCC34CCCN3CCC4)ccc(N)c2c1Cl [Example 3, 4-Amino-N-[2-(1-Azabicyclo[3.3.0]octan-5-yl)ethyl]-3-chloro-2-methylbenzo[b]furan-7-carboxamide.1/2 fumarate]
39.8 nM	–	Cc1cc2c(N)c(Cl)cc(C(=O)NCCC34CCCN3CCC4)c2o1 [Example 4, 4-Amino-N-[2-(1-azabicyclo[3.3.0]octan-5-yl)ethyl]-5-chloro-2-methylbenzo[b]furan-7-carboxamide. 1/2 fumarate]
794 nM	–	Cc1oc2c(C(=O)NCCC34CCCN3CCC4)cc(Cl)c(N)c2c1Cl [Example 5, 4-Amino-N-[2-(1-azabicyclo[3.3.0]octan-5yl)ethyl]-3,5-dichloro-2-methylbenzo[b]furan-7-carboxamide. 1/2 fumarate]
501 nM	–	CCCc1c(N)c(Cl)cc(C(=O)NCCC23CCCN2CCC3)c1OC [Example 6, 4-Amino-N-[2-(1-azabicyclo[3.3.0]octan-5-yl)ethyl]-5-chloro-2-methoxy-3-propylbenzamide. 1/2 fumarate]
398 nM	–	CCCc1c(N)c(Cl)cc(C(=O)NCCC23CCCN2CCC3)c1OCC [Example 7, 4-Amino-N-[2-(1-azabicyclo[3.3.0]octan-5-yl)ethyl]-5-chloro-2-ethoxy-3-propylbenzamide. 1/2 fumarate]
–	6.3	C=CCc1c(N)c(Cl)cc(C(=O)NCCC23CCCN2CCC3)c1OC [Example 8, 4-Amino-N-[2-(1-azabicyclo[3.3.0]octan-5-yl)ethyl]-5-chloro-2-methoxy-3-(2-propenyl)benzamide. 1/2 fumarate]
–	6.3	C=CCc1c(N)c(Cl)cc(C(=O)NCCC23CCCN2CCC3)c1OCC [Example 9, 4-Amino-N-[2-(1-azabicyclo[3.3.0]octan-5-yl)ethyl]-5-chloro-2-ethoxy-3-(2-propenyl)benzamide. 1/2 fumarate]

These molecules were tested on dopamine D2 receptor (assay: not given). Settings: rat, in vivo, po, 100 mg/kg.
Source text: The compounds (salts) obtained by Examples as well as known compound (Metoclopramide) were selected as Test and Control Compounds, respectively. The compound was orally administered to rats to observe for 2 days general symptoms including catalepsy and blepharoptosis due to antagonistic action of the compound to dopamine D2 receptor.

Compound	influence to central nerve system due to anti-dopamine action
CCN(CC)CCNC(=O)c1cc(Cl)c(N)cc1OC [Metoclopramide, 4-amino-5-chloro-N-[(2-diethylamino)ethyl]-2-methoxybenzamide]	somewhat remarkable influence was recognized

Source: patent publication US5539125A, “1-azabicyclo[3.3.0]octan derivative, salt thereof, process for the preparation of same and use thereof as hypermotility agents” (Sanwa Kagaku Kenkyusho Co., Ltd., priority 1994, dated 1996)
